Results as given in PubChem BioAssay AID623883 (Johns Hopkins Ion Channel Center, 2012).
Calls of active or inactive are those of the source.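 Rule for the calls: active = peak hERG inhibition over 30% at some tested dose, together with a fitted dose response curve; inactive = no hERG inhibition at any dose, or no curve fitted.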

Molecular target: Voltage-gated inwardly rectifying potassium channel KCNH2 (Homo sapiens) (UniProt Q12809)
Test: hERG channel inhibition, SAR follow-up, selectivity assay for KCNK9 inhibitor project, cell-based, FluxOR thallium flux, concentration-response, set 4 (AID 623883)
Details: hERG-expressing cells; for fluorescence ratio, lower = inhibition: at 30 µM (top of the series); for IC50: FluxOR thallium flux fluorescence

Sequence of Voltage-gated inwardly rectifying potassium channel KCNH2 (Homo sapiens) (Q12809 whole entry, looked up): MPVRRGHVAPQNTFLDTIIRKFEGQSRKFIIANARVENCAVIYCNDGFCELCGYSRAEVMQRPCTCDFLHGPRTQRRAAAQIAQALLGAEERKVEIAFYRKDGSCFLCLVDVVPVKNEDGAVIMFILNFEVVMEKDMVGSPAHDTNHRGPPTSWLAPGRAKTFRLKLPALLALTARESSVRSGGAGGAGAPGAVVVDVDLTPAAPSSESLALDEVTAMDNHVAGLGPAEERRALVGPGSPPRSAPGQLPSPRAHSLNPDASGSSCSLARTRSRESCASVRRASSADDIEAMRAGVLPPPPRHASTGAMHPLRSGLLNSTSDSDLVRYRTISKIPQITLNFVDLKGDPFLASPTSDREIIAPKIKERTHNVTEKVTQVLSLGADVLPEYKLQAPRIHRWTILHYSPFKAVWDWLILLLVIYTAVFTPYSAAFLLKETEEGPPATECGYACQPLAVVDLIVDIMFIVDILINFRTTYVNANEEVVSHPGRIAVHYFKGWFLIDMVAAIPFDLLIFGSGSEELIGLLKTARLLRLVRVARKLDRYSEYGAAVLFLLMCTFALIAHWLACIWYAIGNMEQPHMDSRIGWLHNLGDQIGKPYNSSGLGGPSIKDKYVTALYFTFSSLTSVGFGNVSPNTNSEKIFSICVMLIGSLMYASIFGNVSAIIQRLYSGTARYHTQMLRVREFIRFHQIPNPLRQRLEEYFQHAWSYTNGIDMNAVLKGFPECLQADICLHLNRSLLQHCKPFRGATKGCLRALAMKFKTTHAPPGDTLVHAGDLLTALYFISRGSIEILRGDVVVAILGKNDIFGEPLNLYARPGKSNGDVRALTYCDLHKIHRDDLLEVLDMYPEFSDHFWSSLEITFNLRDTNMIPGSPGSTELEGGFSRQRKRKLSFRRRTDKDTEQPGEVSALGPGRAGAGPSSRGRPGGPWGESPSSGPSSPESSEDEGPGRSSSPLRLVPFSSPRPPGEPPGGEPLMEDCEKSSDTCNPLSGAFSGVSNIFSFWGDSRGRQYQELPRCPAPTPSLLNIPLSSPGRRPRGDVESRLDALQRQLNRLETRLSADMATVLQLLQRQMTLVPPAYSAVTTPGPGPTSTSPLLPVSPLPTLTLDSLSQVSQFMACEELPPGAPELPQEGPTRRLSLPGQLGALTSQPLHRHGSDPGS

Row | Compound | fluorescence ratio, lower = inhibition | IC50
1 | C[C@@H]([C@@H]1CC2CC[C@H]1C2)n1c(-c2ccsc2)n[nH]c1=S | inactive | 
2 | COc1cccc(-c2n[nH]c(=S)n2[C@H](C)C2CCCCC2)c1 | inactive | 
3 | COc1ccc(C(=O)CCSc2nnc(-c3ccco3)n2C(C)C2CC3CCC2C3)cc1OC (stereo not given) |  | 15.8 µM
4 | COc1ccc(NC(=O)CSc2nnc(-c3ccco3)n2C(C)C2CC3CCC2C3)cc1OC (stereo not given) |  | 25.8 µM
5 | CC([C@@H]1CC2CC[C@H]1C2)n1c(-c2ccsc2)n[nH]c1=S (stereo not given in full) | inactive | 
6 | CC(C1CC2CCC1C2)n1c(N)nnc1-c1ccco1 (stereo not given) | inactive | 
7 | C[C@H](C1CCCCC1)n1c(-c2ccsc2)n[nH]c1=S | inactive | 
8 | COc1cccc(-c2nnc(SSc3nnc(-c4cccc(OC)c4)n3C(C)C3CC4CCC3C4)n2C(C)C2CC3CCC2C3)c1 (stereo not given) |  | 0.398 µM
9 | COc1cccc(-c2n[nH]c(=S)n2[C@H](C)[C@@H]2CC3CC[C@H]2C3)c1 | inactive | 
10 | CC(C1CC2CCC1C2)n1c(SCC(=O)N2CCN(C)CC2)nnc1-c1ccco1 (stereo not given) | inactive | 
11 | C[C@@H]([C@@H]1CC2CC[C@H]1C2)n1c(-c2ccco2)n[nH]c1=S | inactive | 
12 | C[C@H]([C@@H]1CC2CC[C@H]1C2)n1c(-c2ccccc2F)n[nH]c1=S | inactive | 
13 | C[C@H]([C@@H]1CC2CC[C@H]1C2)n1c(-c2ccco2)n[nH]c1=S | inactive | 
14 | CC(C1CC2CCC1C2)n1c(-c2ccco2)nn(CCc2ccncc2)c1=S (stereo not given) | inactive | 
15 | COc1ccc(CSc2nnc(-c3ccco3)n2C(C)C2CC3CCC2C3)cc1OC (stereo not given) |  | 18.2 µM
16 | C[C@H]([C@@H]1CC2CC[C@H]1C2)n1c(-c2ccsc2)n[nH]c1=S | inactive | 0.839 µM
17 | COc1cccc(CCSc2nnc(-c3ccco3)n2C(C)C2CC3CCC2C3)c1 (stereo not given) |  | 4.52 µM
18 | CC(C1CC2CCC1C2)n1c(SCCc2cccc(O)c2)nnc1-c1ccco1 (stereo not given) |  | 8.05 µM
19 | C[C@H](C1CCCCC1)n1c(-c2ccccc2F)n[nH]c1=S | inactive | 
20 | CC(C1C[C@H]2CCC1C2)n1c(-c2ccsc2)n[nH]c1=S (stereo not given in full) | inactive | 
21 | CC(C1CC2CCC1C2)n1c(SCCc2ccccn2)nnc1-c1ccco1 (stereo not given) |  | 12.6 µM
22 | CC(C1CC2CCC1C2)n1c(SCCN2CCOCC2)nnc1-c1ccco1 (stereo not given) | inactive | 
23 | CC(C1CCN(C)CC1)n1c(-c2ccco2)n[nH]c1=S (stereo not given) | inactive | 
24 | CCCC(=O)C1CCN(c2ncnc3c2CN(C(=O)c2ccc(-c4ccccc4)cc2)CC3)CC1 |  | 7.68 µM
